{"source": "paper PMC3445549", "about": "“The Mode of Action of Isocyanide in Three Aquatic Organisms, Balanus amphitrite, Bugula neritina and Danio rerio” (PLoS ONE, 2012)", "target": "T1, NADH-ubiquinone oxidoreductase (Amphibalanus amphitrite, UniProt A0A6A4V2F0)", "T1 construct": "gene NDUFV1; native protein from solubilised cyprid lysate; 50 kD band", "T1 sequence (A0A6A4V2F0 27-476)": "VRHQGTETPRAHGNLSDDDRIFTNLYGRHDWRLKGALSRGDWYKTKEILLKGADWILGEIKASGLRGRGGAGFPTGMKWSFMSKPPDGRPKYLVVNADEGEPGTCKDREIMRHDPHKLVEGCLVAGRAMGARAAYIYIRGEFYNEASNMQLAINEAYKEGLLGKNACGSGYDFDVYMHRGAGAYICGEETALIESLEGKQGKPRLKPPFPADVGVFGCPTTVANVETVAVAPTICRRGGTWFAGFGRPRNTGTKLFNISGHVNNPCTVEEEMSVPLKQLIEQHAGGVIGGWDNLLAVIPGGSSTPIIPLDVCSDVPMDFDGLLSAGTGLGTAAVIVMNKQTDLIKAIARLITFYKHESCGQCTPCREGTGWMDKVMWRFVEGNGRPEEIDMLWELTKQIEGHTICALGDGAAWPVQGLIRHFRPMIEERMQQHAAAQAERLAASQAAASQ", "assay": "affinity pull-down on Affi-gel […] matrix, SDS-PAGE, UPLC-MS/MS", "assay_type": "biochemical", "details": "isocyanide 2 coupled to matrix via its amine (labelled compound); competed by 0.4 mg/ml free isocyanide 2; cyprid lysate; wash 500 mM NaCl, 1% Triton X100"}
{"smiles": "[C-]#[N+]C(C)(C)CCCCCCCCCN", "note": "[compound 2, 10-isocyano-10-methylundecan-1-amine]", "values": [{"measurement": "affinity pull-down on Affi-gel 10 matrix, SDS-PAGE, UPLC-MS/MS", "result": "NADH-ubiquinone oxidoreductase was specifically identified in this protein band (Table S2)"}]}
